# Measured values reported in US9617237B2, “Partially saturated tricyclic compounds and methods of making and using same” (Zafgen, Inc., priority 2011, dated 2017).
# Target: T1, recombinant human MetAP2 (Homo sapiens, UniProt P50579)
# T1 construct: made in house; host or cells: Sf9 insect cells
# Assay: Inhibition of recombinant human MetAP2 activity (fluorescence, MAS substrate, amino acid oxidase/Amplex red)
# Format: biochemical
# Settings: manganese enzyme; 0.75 mM Methionine-Alanine-Serine (MAS) substrate; 30 minutes at 25° C.; pH 7.5; 1% DMSO
# Method: Compounds are tested for their capacity to inhibit recombinant human MetAP2 activity using the following assay.
# Human recombinant MetAP2 expressed in Sf9 cells followed by affinity purification and EDTA treatment to remove endogenous active site cation was dialysed against MnCl2 to produce the manganese enzyme used in the assay. The assay was carried out for 30 minutes at 25° C. in 50 mM HEPES buffer containing 100 mM NaCl, pH 7.5 the presence of 0.75 mM Methionine-Alanine-Serine (MAS) substrate and 50 μg/ml amino acid oxidase using a dilution of purified MetAP2 giving >3-fold signal: noise. Cleavage of the substrate by MetAP2 and oxidation of free methionine by amino acid oxidase was detected and quantified using fluorescence generated by Amplex red (10-acetyl-3,7-dihydroxyphenoxazine) in combination with horseradish peroxidase which detects H2O2 released during the oxidation step. The fluorescent signal was detected using a multiwell fluorimeter. Compounds were diluted in DMSO prior to addition to assay buffer, the final DMSO concentration in the assay being 1%.
# IC50 values are calculated using the XLfit software package (version 2.0.5).
# T1 sequence (P50579 whole entry): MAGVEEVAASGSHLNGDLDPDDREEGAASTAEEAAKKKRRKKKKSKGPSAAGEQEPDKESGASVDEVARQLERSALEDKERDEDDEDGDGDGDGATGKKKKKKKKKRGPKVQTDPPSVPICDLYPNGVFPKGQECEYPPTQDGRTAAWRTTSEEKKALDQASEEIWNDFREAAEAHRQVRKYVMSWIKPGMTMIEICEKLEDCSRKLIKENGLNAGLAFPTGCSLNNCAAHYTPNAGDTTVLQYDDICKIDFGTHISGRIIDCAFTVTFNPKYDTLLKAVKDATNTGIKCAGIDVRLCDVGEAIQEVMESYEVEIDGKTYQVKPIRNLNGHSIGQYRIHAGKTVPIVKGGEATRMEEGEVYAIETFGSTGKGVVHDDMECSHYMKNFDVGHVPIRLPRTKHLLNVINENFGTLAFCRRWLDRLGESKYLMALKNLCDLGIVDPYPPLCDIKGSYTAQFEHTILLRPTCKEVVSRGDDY
row,Compound,IC50 [µM]
1,"CCN(CC)CCCCc1cc(F)ccc1S(=O)(=O)Nc1ccc2c(c1C(=O)O)OCC1CC21 (stereo not drawn) [(1aRS,7bSR)-5-[2((Z)-4-Diethylaminobutyl)-4-fluorobenzenesulfonylamino]-1,1a,2,7b-tetrahydrocyclopropa[c]chromene-4-carboxylic acid]",0.05 to 0.5
2,"O=C(O)c1c(NS(=O)(=O)c2ccc(F)cc2/C=C\CNN2CC[C@H](O)C2)ccc2c1OC[C@@H]1C[C@H]21 [(1aRS,7bSR)-5-{2[(Z)-3-((S)-3-hydroxypyrrolidin-1-y)aminoprop-1-enyl]-4-fluorobenzenesulfonylamino}-1,1a,2,7b-tetrahydrocyclopropa[c]chromene-4-carboxylic acid]",0.05 to 0.5
3,"O=C(O)c1c(NS(=O)(=O)c2ccc(F)cc2CCCN2CCC2)ccc2c1OCC1CC21 (stereo not drawn) [(1aRS,7bSR)-5-{2[(Z)-3-(Azetidin-1-yl)propyl]-4-fluorobenzenesulfonylamino}-1,1a,2,7b-tetrahydrocyclopropa[c]chromene-4-carboxylic acid]",0.05 to 0.5
4,"CCN(CC)C/C=C\c1cc(F)ccc1S(=O)(=O)Nc1ccc2c(c1C(=O)O)OC[C@H]1C[C@@H]21 [(1aS,7bR) 5-[2-((Z)-3-Diethylaminoprop-1-enyl)-4-fluorobenzenesulfonyl-amino]-1,1a,2,7b-tetrahydrocyclopropa[c]chromene-4-carboxylic acid]",0.05 to 0.5
5,"(1aRS,7bSR)-5-{2[(Z)-3-((R)-3-Hydroxypyrrolidin-1-yl)aminoprop-1-enyl]-4-fluorobenzene-sulfonylamino}-1,1a,2,7b-tetrahydro-cyclopropa[c]chromene-4-carboxylic acid",0.05 to 0.5

# Next, values leading:
row,IC50 [µM],Compound
1,< 0.05,"CCN(CC)CCCc1cc(F)ccc1S(=O)(=O)Nc1ccc2c(c1C(=O)O)OC[C@@H]1C[C@H]21 [(1aR,7bS)-5-[2-(3-Diethylaminopropyl)-4-fluorobenzenesulfonyl-amino]-1,1a,2,7b-tetrahydrocyclopropa[c]chromene-4-carboxylic acid]"
2,0.05 to 0.5,"CCN1CC[C@@H](OCc2cc(F)ccc2S(=O)(=O)Nc2ccc3c(c2C(=O)O)OC[C@@H]2C[C@H]32)C1 [(1aR,7bS)-5-[2-((R)-1-Ethylpyrrolidin-3-yloxymethyl)-4-fluoro-benzenesulfonylamino]-1,1a,2,7b-tetrahydrocyclopropa-[c]chromene-4-carboxylic acid]"
3,0.05 to 0.5,"CCN1CC[C@H](OCc2cc(F)ccc2S(=O)(=O)Nc2ccc3c(c2C(=O)O)OC[C@@H]2C[C@H]32)C1 [(1aR,7bS)-5-[2-((S)-1-Ethylpyrrolidin-3-yloxymethyl)-4-fluoro-benzenesulfonylamino]-1,1a,2,7b-tetrahydrocyclopropa-[c]chromene-4-carboxylic acid]"
4,0.05 to 0.5,"CCN1CCC[C@H]1CCc1cc(F)ccc1S(=O)(=O)Nc1ccc2c(c1C(=O)O)OC[C@@H]1C[C@H]21 [(1aR,7bS)-5-{2-[2-((R)-1-Ethylpyrrolidin-2-yl)ethyl]-4-fluorobenzenesulfonyl-amino}-1,1a,2,7b-tetrahydrocyclopropa-[c]chromene-4-carboxylic acid]"
5,< 0.05,"CCN(CC)CCCNc1ccccc1S(=O)(=O)Nc1ccc2c(c1C(=O)O)OCC1CC21 (stereo not drawn) [(1aRS,7bSR)-5-[2-(3-N,N,-Diethylaminopropylamino)benzene-sulfonylamino]-1,1a,2,7b-tetrahydrocyclopropa[c]chromene-4-carboxylic acid]"
